Read-outs that look alike come from different tables or passages of the source.
What was measured:
HDAC3 [1] = target: T1, HDAC3 (Homo sapiens, UniProt O15379); assay: In vitro HDAC inhibition assay (fluorogenic substrate), HDAC3; assay type: biochemical; design: All three full-length rhHDACs were expressed in insect High5 cells using a baculoviral expression system; His6; GST; made in house; host or cells: insect High5 cells (baculovirus); conditions: recombinant human HDAC3; mean ± SD of three independent determinations
Experimental: (§1) All three full-length rhHDACs were expressed in insect High5 cells using a baculoviral expression system, and all the His6-tagged and GST-fusion proteins were purified using Ni-NTA (QIAGEN). […] In brief, the HDAC assay mixture contained an HDAC substrate (5–50 μM, 5 μl), rhHDAC isoforms (20–200 nM) and an inhibitor (1 μl). The positive controls contained all the above components except the inhibitor. The negative controls contained neither an enzyme nor an inhibitor. The HDAC6 assay components were incubated at room temperature for 3 h, and HDAC 1 and 3 were incubated for 24 h. […] The plates were incubated for 30 min at room temperature to allow the fluorescence signal to develop.
Target sequence in this assay (O15379 whole entry, the tested form may be a part, canonical isoform): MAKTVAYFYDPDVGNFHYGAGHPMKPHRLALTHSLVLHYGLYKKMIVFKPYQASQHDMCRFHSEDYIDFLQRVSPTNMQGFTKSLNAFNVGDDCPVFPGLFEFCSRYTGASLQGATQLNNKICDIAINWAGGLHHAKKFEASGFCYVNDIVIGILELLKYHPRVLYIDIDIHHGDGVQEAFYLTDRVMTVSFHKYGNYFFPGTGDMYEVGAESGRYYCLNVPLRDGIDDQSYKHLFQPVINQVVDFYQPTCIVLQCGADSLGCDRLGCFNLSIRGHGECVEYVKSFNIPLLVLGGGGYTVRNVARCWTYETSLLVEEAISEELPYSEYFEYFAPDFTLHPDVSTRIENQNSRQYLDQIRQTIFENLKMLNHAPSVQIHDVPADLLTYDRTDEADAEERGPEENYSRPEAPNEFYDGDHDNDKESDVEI
Target sequence in this assay (Q9Y618 395-489 partner limits assumed): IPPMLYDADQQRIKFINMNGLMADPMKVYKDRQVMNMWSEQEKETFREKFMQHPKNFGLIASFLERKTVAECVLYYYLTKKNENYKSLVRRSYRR

HDAC1 [2] = target: T2, HDAC1 (Homo sapiens, UniProt Q13547); assay: In vitro HDAC inhibition assay (fluorogenic substrate), HDAC1; assay type: biochemical; design: All three full-length rhHDACs were expressed in insect High5 cells using a baculoviral expression system; His6; GST; made in house; host or cells: insect High5 cells (baculovirus); conditions: recombinant human HDAC1; mean ± SD of three independent determinations
Experimental: as §1

HDAC6 [3] = target: T3, HDAC6 (Homo sapiens, UniProt Q9UBN7); assay: In vitro HDAC inhibition assay (fluorogenic substrate), HDAC6; assay type: biochemical; design: All three full-length rhHDACs were expressed in insect High5 cells using a baculoviral expression system; His6; GST; made in house; host or cells: insect High5 cells (baculovirus); conditions: recombinant human HDAC6; mean ± SD of three independent determinations
T3 sequence (Q9UBN7 1-1215): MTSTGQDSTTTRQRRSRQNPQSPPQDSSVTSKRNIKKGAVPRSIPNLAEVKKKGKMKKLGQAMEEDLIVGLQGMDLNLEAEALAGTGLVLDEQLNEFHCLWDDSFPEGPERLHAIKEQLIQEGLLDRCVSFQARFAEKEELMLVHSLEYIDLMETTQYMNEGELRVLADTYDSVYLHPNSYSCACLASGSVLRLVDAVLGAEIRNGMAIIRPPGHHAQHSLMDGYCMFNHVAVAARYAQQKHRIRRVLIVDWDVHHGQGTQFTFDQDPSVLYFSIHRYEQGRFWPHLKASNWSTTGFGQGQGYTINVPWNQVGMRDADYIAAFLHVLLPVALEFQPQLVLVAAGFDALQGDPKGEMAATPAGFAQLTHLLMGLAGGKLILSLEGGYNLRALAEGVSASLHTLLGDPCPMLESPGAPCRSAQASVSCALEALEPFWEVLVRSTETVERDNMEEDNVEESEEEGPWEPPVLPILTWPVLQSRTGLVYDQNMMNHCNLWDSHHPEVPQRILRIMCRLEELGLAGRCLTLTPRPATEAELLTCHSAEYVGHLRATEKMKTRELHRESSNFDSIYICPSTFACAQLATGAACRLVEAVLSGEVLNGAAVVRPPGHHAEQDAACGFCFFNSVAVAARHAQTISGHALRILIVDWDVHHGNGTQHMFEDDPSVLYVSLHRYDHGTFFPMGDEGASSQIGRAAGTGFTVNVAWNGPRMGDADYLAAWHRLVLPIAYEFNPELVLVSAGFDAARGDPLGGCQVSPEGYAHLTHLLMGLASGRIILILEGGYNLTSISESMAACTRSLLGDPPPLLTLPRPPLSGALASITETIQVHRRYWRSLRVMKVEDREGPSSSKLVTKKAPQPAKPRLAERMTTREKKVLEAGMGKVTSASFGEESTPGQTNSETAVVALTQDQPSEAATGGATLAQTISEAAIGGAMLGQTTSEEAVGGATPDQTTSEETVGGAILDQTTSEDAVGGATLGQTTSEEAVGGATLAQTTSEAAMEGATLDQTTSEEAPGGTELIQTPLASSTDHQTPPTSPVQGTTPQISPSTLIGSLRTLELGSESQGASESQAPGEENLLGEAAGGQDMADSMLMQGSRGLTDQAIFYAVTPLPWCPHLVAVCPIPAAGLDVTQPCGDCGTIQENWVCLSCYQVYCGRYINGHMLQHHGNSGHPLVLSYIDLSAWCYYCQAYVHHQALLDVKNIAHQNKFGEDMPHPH
Experimental: as §1

MM.1S cell line = assay: In vitro anti-proliferative activity, MTS assay; assay type: cell-based; conditions: for IC50: Homo sapiens, MM1.S
Experimental: The cells were seeded in 96 well plates at a proper density in growth media. After 24 h, a range of concentrations of the test compounds was added and the plates were incubated at 37 °C for 72 h. The cell proliferation was determined by the MTS assay. After 3 h, the absorbance was collected using SpectraMAX 340. The IC50 values were calculated by fitting a concentration–response curve using a SoftMax pro-based four-parameter method.

tubulin acetylation = assay: Tubulin acetylation in MM.1S cells; assay type: cell-based
HDAC6 [4] = target: T3, HDAC6; assay: Western blot of HDAC6 protein level (degradation) in MM.1S cells; assay type: cell-based; design: endogenous in cells; host or cells: MM.1S; conditions: 3 h; for degradation of HDAC6 (immunoblot): different concentrations
Experimental: (§2) The 2 × 10^6 MM.1S cells (multiple myeloma) were cultured in a cell culture plate and incubated for 1 h. Next, the MM.1S cells were treated with compounds at different concentrations for 3 h. Subsequently, the cells were collected, washed, lysed in a Ripa buffer containing a sample reducing agent, and analyzed using SDS/PAGE. Finally, the gel was blotted and the total HDAC levels were detected through standard Western blot.

HDAC3 [5] = target: T1, HDAC3; assay: Western blot of HDAC3 protein level (degradation) in MM.1S cells; assay type: cell-based; design: endogenous in cells; host or cells: MM.1S; conditions: 3 h, different concentrations
Experimental: as §2
Target sequence in this assay (O15379 whole entry, the tested form may be a part, canonical isoform): as the sequence (O15379 whole entry, the tested form may be a part, canonical isoform) above

HDAC1 [6] = target: T2, HDAC1; assay: Western blot of HDAC1 protein level (degradation) in MM.1S cells; assay type: cell-based; design: endogenous in cells; host or cells: MM.1S; conditions: 3 h, different concentrations
Experimental: as §2

[7] = MM.1S, 72 h, MTS, mean ± SD of three independent determinations, read-out: IC50 (μM ± SD) anti-proliferative activity against MM.1S cell line

T2 sequence (Q13547 whole entry): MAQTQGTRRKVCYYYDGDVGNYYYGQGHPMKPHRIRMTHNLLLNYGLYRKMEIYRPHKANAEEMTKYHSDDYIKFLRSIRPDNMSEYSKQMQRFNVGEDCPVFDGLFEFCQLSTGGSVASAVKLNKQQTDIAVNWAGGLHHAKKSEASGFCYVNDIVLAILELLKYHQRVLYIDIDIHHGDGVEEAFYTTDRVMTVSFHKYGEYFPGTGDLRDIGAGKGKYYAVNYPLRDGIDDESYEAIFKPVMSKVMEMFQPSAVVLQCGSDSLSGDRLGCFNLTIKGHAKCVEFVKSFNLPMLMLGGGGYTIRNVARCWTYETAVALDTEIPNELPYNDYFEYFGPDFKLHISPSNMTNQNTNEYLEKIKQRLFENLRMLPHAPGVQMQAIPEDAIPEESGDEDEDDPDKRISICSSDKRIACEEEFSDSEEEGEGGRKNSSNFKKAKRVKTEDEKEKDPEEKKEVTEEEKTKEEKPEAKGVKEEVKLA

| SMILES | IC50 (HDAC3 [1]) [µM] | IC50 (HDAC1 [2]) [µM] | IC50 (HDAC6 [3]) [µM] | IC50 (MM.1S cell line; [7]) [µM] | IC50 (MM.1S cell line; MM.1S cells, printed beside the HDAC6 immunoblot, read-out: IC50 printed in the picture of Figure 4B) [µM] | HDAC6 degradation compared with HDAC1 and HDAC3 (immunoblot) (HDAC6 [4]; 0.12 μM) | degradation of HDAC6 (immunoblot) (HDAC6 [4]) | degradation of HDAC3 (immunoblot) (HDAC3 [5]) | degradation of HDAC1 (immunoblot) (HDAC1 [6]) | increase in tubulin acetylation (tubulin acetylation) | anti-proliferative potency relative to SAHA (MM.1S cell line; MM.1S cell line) |
| --- | --- | --- | --- | --- | --- | --- | --- | --- | --- | --- | --- |
| O=C(CCCCCC(=O)Nc1cccc2c1CN(C1CCC(=O)NC1=O)C2=O)NO (stereo not drawn) [9a, N^1-(2-(2,6-Dioxopiperidin-3-yl)-1-oxoisoindolin-4-yl)-N^7-hydroxyheptanediamide] | 2.2 ± 0.29 | 2.31 ± 0.46 | 1.98 ± 0.69 | – | – | – | – | – | – | – | – |
| O=C(CCCCCCC(=O)Nc1cccc2c1CN(C1CCC(=O)NC1=O)C2=O)NO (stereo not drawn) [9b, N^1-(2-(2,6-Dioxopiperidin-3-yl)-1-oxoisoindolin-4-yl)-N^8-hydroxyoctanediamide] | 0.47 ± 0.01 | 0.38 ± 0.14 | 1.46 ± 1.02 | > 10 | – | – | – | – | – | – | – |
| O=C(CCCCCCCC(=O)Nc1cccc2c1CN(C1CCC(=O)NC1=O)C2=O)NO (stereo not drawn) [9c, N^1-(2-(2,6-Dioxopiperidin-3-yl)-1-oxoisoindolin-4-yl)-N^9-hydroxynonanediamide] | 1.06 ± 0.2 | 1.13 ± 0.03 | 3.67 ± 1.02 | – | – | – | – | – | – | – | – |
| O=C(CCCCCCCCC(=O)Nc1cccc2c1CN(C1CCC(=O)NC1=O)C2=O)NO (stereo not drawn) [9d, N^1-(2-(2,6-Dioxopiperidin-3-yl)-1-oxoisoindolin-4-yl)-N^10-hydroxydecanediamide] | 0.75 ± 0.06 | 0.72 ± 0.18 | 2.94 ± 0.62 | – | – | – | – | – | – | – | – |
| O=C(CCCCCCC(=O)Nc1cccc2c1C(=O)N(C1CCC(=O)NC1=O)C2=O)NO (stereo not drawn) [9e, N^1-(2-(2,6-Dioxopiperidin-3-yl)-1,3-dioxoisoindolin-4-yl)-N^8-hydroxyoctanediamide] | 0.33 ± 0.01 | 2.7 ± 0.36 | 0.42 ± 0.18 | > 10 | – | – | – | – | – | – | – |
| O=C(CCCCCNC(=O)Nc1cccc2c1CN(C1CCC(=O)NC1=O)C2=O)NO (stereo not drawn) [15a, 6-(3-(2-(2,6-Dioxopiperidin-3-yl)-1-oxoisoindolin-4-yl)ureido)-N-hydroxyhexanamide] | 0.27 ± 0.04 | – | 5.96 ± 1.43 | > 10 | – | – | – | – | – | – | – |
| O=C(CCCCCCNC(=O)Nc1cccc2c1CN(C1CCC(=O)NC1=O)C2=O)NO (stereo not drawn) [15b, 7-(3-(2-(2,6-Dioxopiperidin-3-yl)-1-oxoisoindolin-4-yl)ureido)-N-hydroxyheptanamide] | 0.58 ± 0.04 | 0.57 ± 0.04 | 1.67 ± 0.41 | – | – | – | – | – | – | – | – |
| O=C(CCCCCCCCNC(=O)Nc1cccc2c1CN(C1CCC(=O)NC1=O)C2=O)NO (stereo not drawn) [15c, 9-(3-(2-(2,6-Dioxopiperidin-3-yl)-1-oxoisoindolin-4-yl)ureido)-N-hydroxynonanamide] | 0.96 ± 0.13 | 0.82 ± 0.06 | 3.09 ± 0.54 | – | – | – | – | – | – | – | – |
| O=C(CCCCCNC(=O)Nc1cccc2c1C(=O)N(C1CCC(=O)NC1=O)C2=O)NO (stereo not drawn) [15d, 6-(3-(2-(2,6-Dioxopiperidin-3-yl)-1,3-dioxoisoindolin-4-yl)ureido)-N-hydroxyhexanamide] | 0.22 ± 0.02 | 0.44 ± 0.1 | 5.28 ± 1.42 | > 10 | – | – | – | – | – | – | – |

More lines, main results first:

| IC50 (HDAC3 [1]) [µM] | IC50 (HDAC1 [2]) [µM] | IC50 (HDAC6 [3]) [µM] | IC50 (MM.1S cell line; [7]) [µM] | IC50 (MM.1S cell line; MM.1S cells, printed beside the HDAC6 immunoblot, read-out: IC50 printed in the picture of Figure 4B) [µM] | HDAC6 degradation compared with HDAC1 and HDAC3 (immunoblot) (HDAC6 [4]; 0.12 μM) | degradation of HDAC6 (immunoblot) (HDAC6 [4]) | degradation of HDAC3 (immunoblot) (HDAC3 [5]) | degradation of HDAC1 (immunoblot) (HDAC1 [6]) | SMILES | increase in tubulin acetylation (tubulin acetylation) | anti-proliferative potency relative to SAHA (MM.1S cell line; MM.1S cell line) |
| --- | --- | --- | --- | --- | --- | --- | --- | --- | --- | --- | --- |
| 0.56 ± 0.02 | 1.6 ± 0.54 | > 20 | 0.043 ± 0.02 | 0.04 | superior HDAC6 degradation efficacies | dose-dependent manner | – | – | Nc1ccccc1NC(=O)c1ccc(COc2cccc3c2CN(C2CCC(=O)NC2=O)C3=O)cc1 (stereo not drawn) [21a, N-(2-Aminophenyl)-4-(((2-(2,6-dioxopiperidin-3-yl)-1-oxoisoindolin-4-yl)oxy)methyl)benzamide] | not observed | approximately five times more potent |
| 0.28 ± 0.04 | 1.2 ± 0.44 | > 20 | 0.541 ± 0.108 | – | – | almost no degradation | almost no degradation | almost no degradation | Nc1ccccc1NC(=O)c1ccc(COc2cccc3c2C(=O)N(C2CCC(=O)NC2=O)C3=O)cc1 (stereo not drawn) [21b, N-(2-Aminophenyl)-4-(((2-(2,6-dioxopiperidin-3-yl)-1,3-dioxoisoindolin-4-yl)oxy)methyl)benzamide] | – | – |
| 0.65 ± 0.03 | 8.32 ± 2.1 | 0.38 ± 0.1 | > 10 | – | – | – | – | – | O=C1CCC(N2Cc3c(OCc4ccc(C(=O)NO)cc4)cccc3C2=O)C(=O)N1 (stereo not drawn) [23a, 4-(((2-(2,6-Dioxopiperidin-3-yl)-1-oxoisoindolin-4-yl)oxy)methyl)-N-hydroxybenzamide] | – | – |
| 0.76 ± 0.1 | 2.23 ± 0.3 | > 20 | 1.34 ± 0.4 | – | – | almost no degradation | almost no degradation | almost no degradation | O=C1CCC(N2C(=O)c3cccc(OCc4ccc(C(=O)NO)cc4)c3C2=O)C(=O)N1 (stereo not drawn) [23b, 4-(((2-(2,6-Dioxopiperidin-3-yl)-1,3-dioxoisoindolin-4-yl)oxy)methyl)-N-hydroxybenzamide] | – | – |

Reference: article PMC8658794, “Design, Synthesis, and Biological Evaluation of HDAC Degraders with CRBN E3 Ligase Ligands” (Molecules, 2021)
